Key:
[1] = Biodistribution of 99mTc-MAG3 and 188Re-MAG3 in a dual label study, tail vein injection; type: in vivo, rats; details: ± standard deviation
Text: Biodistribution Data for ^99m Tc-MAG3 and ^188 Re-MAG3 in a dual label study

[2] = Dual label excretion studies of 188Re-MAG3 and 99mTc-MAG3 in rats (urine, feces); type: in vivo; details: simultaneously injected in rats
Text: Comparison of the Excretion of ^188 Re-MAG3 with ^99 mTc-MAG3 in rats
Dual Label Excretion Studies of ^188 Re-MAG3 and ^99m Tc-MAG3 in Rats

## O=C(O)C[N]1C(=O)C[N]2C(=O)C[N]3C(=O)C[S][99Tc-]132=[O] [^99m Tc-MAG3, reference compound]
[1]; 2 h
  Biodistribution Data for ^99m Tc-MAG3, blood: 0.18 ± 0.02 % inj. dose/g tissue
  Biodistribution Data for ^99m Tc-MAG3, bone: 0.05 ± 0.02 % inj. dose/g tissue
  Biodistribution Data for ^99m Tc-MAG3, contents of l.i.: 0.72 ± 0.18 % inj. dose/g tissue
  Biodistribution Data for ^99m Tc-MAG3, contents of s.i.: 1.84 ± 2.27 % inj. dose/g tissue
  Biodistribution Data for ^99m Tc-MAG3, heart: 0.09 ± 0.02 % inj. dose/g tissue
  Biodistribution Data for ^99m Tc-MAG3, kidneys: 0.61 ± 0.11 % inj. dose/g tissue
  Biodistribution Data for ^99m Tc-MAG3, large intestine: 0.14 ± 0.02 % inj. dose/g tissue
  Biodistribution Data for ^99m Tc-MAG3, liver: 0.15 ± 0.02 % inj. dose/g tissue
  Biodistribution Data for ^99m Tc-MAG3, lung: 0.15 ± 0.04 % inj. dose/g tissue
  Biodistribution Data for ^99m Tc-MAG3, small intestine: 0.12 ± 0.04 % inj. dose/g tissue
  Biodistribution Data for ^99m Tc-MAG3, spleen: 0.06 ± 0.02 % inj. dose/g tissue
  Biodistribution Data for ^99m Tc-MAG3, thyroid: 2.41 ± 0.95 % inj. dose/g tissue
[1]; 6 h
  Biodistribution Data for ^99m Tc-MAG3, blood: 0.13 ± 0.00 % inj. dose/g tissue
  Biodistribution Data for ^99m Tc-MAG3, bone: 0.03 ± 0.03 % inj. dose/g tissue
  Biodistribution Data for ^99m Tc-MAG3, contents of l.i.: 1.16 ± 0.23 % inj. dose/g tissue
  Biodistribution Data for ^99m Tc-MAG3, contents of s.i.: 0.08 ± 0.03 % inj. dose/g tissue
  Biodistribution Data for ^99m Tc-MAG3, heart: 0.08 ± 0.01 % inj. dose/g tissue
  Biodistribution Data for ^99m Tc-MAG3, kidneys: 0.43 ± 0.09 % inj. dose/g tissue
  Biodistribution Data for ^99m Tc-MAG3, large intestine: 0.18 ± 0.00 % inj. dose/g tissue
  Biodistribution Data for ^99m Tc-MAG3, liver: 0.15 ± 0.00 % inj. dose/g tissue
  Biodistribution Data for ^99m Tc-MAG3, lung: 0.07 ± 0.02 % inj. dose/g tissue
  Biodistribution Data for ^99m Tc-MAG3, small intestine: 0.07 ± 0.01 % inj. dose/g tissue
  Biodistribution Data for ^99m Tc-MAG3, spleen: 0.07 ± 0.01 % inj. dose/g tissue
  Biodistribution Data for ^99m Tc-MAG3, thyroid: 2.43 ± 0.24 % inj. dose/g tissue
[1]; 24 h
  Biodistribution Data for ^99m Tc-MAG3, blood: 0.05 ± 0.00 % inj. dose/g tissue
  Biodistribution Data for ^99m Tc-MAG3, bone: 0.02 ± 0.01 % inj. dose/g tissue
  Biodistribution Data for ^99m Tc-MAG3, contents of l.i.: 0.05 ± 0.01 % inj. dose/g tissue
  Biodistribution Data for ^99m Tc-MAG3, contents of s.i.: 0.02 ± 0.01 % inj. dose/g tissue
  Biodistribution Data for ^99m Tc-MAG3, heart: 0.04 ± 0.00 % inj. dose/g tissue
  Biodistribution Data for ^99m Tc-MAG3, kidneys: 0.40 ± 0.11 % inj. dose/g tissue
  Biodistribution Data for ^99m Tc-MAG3, large intestine: 0.06 ± 0.00 % inj. dose/g tissue
  Biodistribution Data for ^99m Tc-MAG3, liver: 0.11 ± 0.01 % inj. dose/g tissue
  Biodistribution Data for ^99m Tc-MAG3, lung: 0.04 ± 0.03 % inj. dose/g tissue
  Biodistribution Data for ^99m Tc-MAG3, small intestine: 0.03 ± 0.00 % inj. dose/g tissue
  Biodistribution Data for ^99m Tc-MAG3, spleen: 0.06 ± 0.00 % inj. dose/g tissue
  Biodistribution Data for ^99m Tc-MAG3, thyroid: 0.76 ± 0.59 % inj. dose/g tissue
[2]
  distribution and elimination, 99mTc-MAG3 versus 188Re-MAG3: identical
